The text below walks through data of patent US12516365B2, “Biocide compositions compatible with enzyme biosensors and methods of use thereof” (priority 2019, dated 2026).

Where a name gives a salt, the structure may show the parent alone.

One assay has as its system Creatinine Sensor. As to the kind of experiment: Screen of biocides/antibiotics for compatibility with the Creatinine Sensor (Creatinine Sensor Slope loss). It counts as biochemical. More on the design: key: “Fail” indicates the compound inhibited Creatinine Sensor Slope; “Pass” indicates there was no significant effect on Creatinine Sensor Slope. The text has this:
In one embodiment, a biocide candidate may be injected into, for example, one PCS-B bag after about one week of cartridge use life, and then any changes in sensor slopes over the next week or two, especially any increase in the rate of slope decrease, may be observed. During this time, aqueous solutions with high substrate concentrations may be tested to ensure that enzymes are still able to convert all substrate to products in the allotted time (e.g., about one minute).
In one embodiment, multiple cartridges assembled with, for example, PCS-B bags containing a candidate biocide may be tested for a prolonged period of time (e.g., 20-30 days) that corresponds to the useful cartridge lifespan (which may vary depending upon the cartridge type tested). In this case the cartridge starts the hydration process, which generally lasts about 50 minutes, with the biocide already in the solution bag (e.g., PCS-B). […] Over the course of 3 weeks, in addition to running aqueous controls that have established acceptance ranges, whole human blood may also be tested in order to simulate normal customer use.
A variety of candidate molecules were screened as described above to determine whether they were compatible with the Creatinine Sensor, i.e. whether there was a significant effect on Creatinine Sensor Slope.

The subject of assay [1] is ChemSTAT creatinine sensor (creatininase, creatinase and sarcosine oxidase). As to the kind of experiment: Creatinine and creatine sensor slopes over time with biocide in Process Control Solution (PCS). It counts as biochemical. The following applies: for Creatinine and creatine slopes over time after addition to PCS: 20 mg/L added to PCS-B after stable slopes for more than one week. As for the experimental part: FIGS. 2A-2B show plots of creatinine and creatine slopes over time in the presence of either MIT or polymyxin B, respectively. […] Stable slopes were first established for more than one week before 300 mg/L MIT (methyl isothiazolinone) or 20 mg/L polymyxin B was added to the Process Control Solution (PCS) B (e.g., PCS-B).
The present disclosure discovered that Polymyxin B and Polymyxin E (aka, Colistin Sulfate) were compatible with a ChemSTAT creatinine sensor that utilized two hydrolase class enzymes (e.g., creatininase and creatinase) and sarcosine oxidase to measure creatinine. When included in Process Control Solutions (PCS) at a concentration sufficient to kill microbes (e.g., bacteria, in particular gram negative rods including various strains of Pseudomonas), the slope of the sensor remained high enough over 21 days to continually allow accurate measurement of creatinine in human blood and aqueous control solutions even at the upper end of the linear range where reduced enzyme activity could result in low recovery of substrate.
MIT is the most common biocide used in the blood gas industry for microbial contamination, and is known to be compatible with oxidase class enzymes such as glucose oxidase and lactate oxidase.
Importantly, the creatinine slope performed equivalently with colistin in PCS bags (see FIG. 3, left) to cartridges with PCS bags protected only with gentamicin (see FIG. 3, right). In this plot, no bacterial contamination was observed on control or test biocide PCS bags nor was there any evidence of enzyme inhibition and therefore performance is similar.

`Oc1ccccc1-c1ccccc1` [2-phenyl phenol]: the “Pass/Fail (Creatinine Sensor Slope Loss)” value in the assay on Creatinine Sensor is given as “Fail”.

For `Oc1cccc2cccnc12` [8-hydroxyquinoline], the “Pass/Fail (Creatinine Sensor Slope Loss)” value in the assay with Creatinine Sensor was “Fail”.

For the compound `NCC[C@H](O)C(=O)N[C@@H]1C[C@H](N)[C@@H](O[C@H]2O[C@H](CN)[C@@H](O)[C@H](O)[C@H]2O)[C@H](O)[C@H]1O[C@H]1O[C@H](CO)[C@@H](O)[C@H](N)[C@H]1O` [Amikacin sulfate], the “Pass/Fail (Creatinine Sensor Slope Loss)” value with Creatinine Sensor was “Pass”.

As to `O=c1[nH]sc2ccccc12` [BIT, benisothiazolinone], in the assay with Creatinine Sensor, the “Pass/Fail (Creatinine Sensor Slope Loss)” value is given as “Fail”. In addition, the “Inhibition/inactivation of creatininase, creatinase and sarcosine oxidase” value (“Inhibition/inactivation of creatininase” for short) in assay [1] was “irreversibly inhibited”.

As to `CC1(C)S[C@@H]2[C@H](NC(=O)C(C(=O)O)c3ccccc3)C(=O)N2C1C(=O)O` (some centres unmarked) [Carbenicillin disodium], the “Pass/Fail (Creatinine Sensor Slope Loss)” value in the assay with Creatinine Sensor was “Pass”.

Consider `CC(C)(O/N=C(\C(=O)N[C@@H]1C(=O)N2C(C(=O)[O-])=C(C[n+]3ccccc3)CS[C@H]12)c1csc(N)n1)C(=O)O` [Ceftazidime], for which the “Pass/Fail (Creatinine Sensor Slope Loss)” value with Creatinine Sensor is recorded as “Pass”.

In the case of `Cn1sc(Cl)cc1=O` [Cl-MIT, chlorinatedmethyl- isonthiazolinone], the “Pass/Fail (Creatinine Sensor Slope Loss)” value in the assay on Creatinine Sensor is given as “Fail”. For the same compound, in assay [1], the “Inhibition/inactivation of creatininase” value is recorded as “irreversibly inhibited”.

Regarding `CC1(C)NC(=O)NC1=O` [Dantogard Plus, dimethylhydantoin], the “Pass/Fail (Creatinine Sensor Slope Loss)” value in the assay with Creatinine Sensor was “Fail”. Also, the “Inhibition/inactivation of creatininase” value in assay [1] is on record as “irreversibly inhibited”.

As to `CNC1C(O)[C@@H](O[C@H]2C(N)C[C@H](N)C(O[C@H]3OC(C(C)N)CCC3N)C2O)OC[C@]1(C)O` (some centres unmarked) [Gentamicin sulfate], the “Pass/Fail (Creatinine Sensor Slope Loss)” value in the assay on Creatinine Sensor is listed as “Pass”. Also, in assay [1] (full use life of three weeks), the “Creatinine slope performance over time in PCS” value is listed as “maintained sufficient creatinine slope”.

Consider `C[C@H]1COc2c(N3CCN(C)CC3)c(F)cc3c(=O)c(C(=O)O)cn1c23` [Levofloxacin], for which the “Pass/Fail (Creatinine Sensor Slope Loss)” value in the assay on Creatinine Sensor was “Pass”.

With `Cn1sc2ccccc2c1=O` [MBIT, methylbenzisothiazolinone], the “Pass/Fail (Creatinine Sensor Slope Loss)” value in the assay on Creatinine Sensor is recorded as “Fail”. Moreover, the “Inhibition/inactivation of creatininase” value in assay [1] was “irreversibly inhibited”.

Regarding `CCn1cc(C(=O)O)c(=O)c2cc(F)c(N3CCNCC3)cc21` [Norfloxacin], the “Pass/Fail (Creatinine Sensor Slope Loss)” value with Creatinine Sensor was “Fail”. Moreover, in assay [1], the “Inhibition/inactivation of creatininase” value is listed as “irreversibly inhibited”.

For `CCCCNC(=O)OCC#CI` [Omacide IPBC, iodopropynylbutylcarbamate], the “Pass/Fail (Creatinine Sensor Slope Loss)” value in the assay with Creatinine Sensor was “Fail”. Further, the “Inhibition/inactivation of creatininase” value in assay [1] is recorded as “irreversibly inhibited”.

Take `CCN1CCN(C(=O)N[C@@H](C(=O)N[C@@H]2C(=O)N3C(C(=O)O)C(C)(C)S[C@H]23)c2ccccc2)C(=O)C1=O` (some centres unmarked) [Piperacillin]: in the assay with Creatinine Sensor, the “Pass/Fail (Creatinine Sensor Slope Loss)” value is listed as “Pass”.

In the case of `CN[C@@H]1[C@H](O)[C@H](NC)[C@H]2O[C@@]3(O)C(=O)C[C@@H](C)O[C@H]3O[C@@H]2[C@H]1O` [Spectinomycin], the “Pass/Fail (Creatinine Sensor Slope Loss)” value in the assay on Creatinine Sensor is reported as “Pass”.

For `COc1cc(Cc2cnc(N)nc2N)cc(OC)c1OC` [Trimethoprim], the “Pass/Fail (Creatinine Sensor Slope Loss)” value in the assay with Creatinine Sensor was “Fail”. Further, in assay [1], the “Inhibition/inactivation of creatininase” value is “irreversibly inhibited”.

Regarding Polymyxin B, the “Pass/Fail (Creatinine Sensor Slope Loss)” value in the assay with Creatinine Sensor is reported as “Pass”. Also, the “Creatinine and creatine slopes over time after addition to PCS” value in assay [1] is given as “no effect”; in assay [1] (listed as polymyxin B), “does not causes a rapid decay”. Besides, in assay [1] (in PCS at a concentration sufficient to kill microbes, slope over 21 days), the “Compatibility with ChemSTAT creatinine sensor” value was “compatible”.

Consider Streptomycin, for which, in the assay on Creatinine Sensor, the “Pass/Fail (Creatinine Sensor Slope Loss)” value was “Pass”.
